Assay results: patent US12054498B2, “Heteroaromatic macrocyclic ether chemotherapeutic agents” (Nuvalent, Inc., priority 2020, dated 2024)

Assays:
Ba/F3 cells TPM3-TRKA = biological target: T1, Ba/F3 cells TPM3-TRKA (Homo sapiens, UniProt P04629); assay: Ba/F3 cell proliferation assay, TPM3-TRKA; format: cell-based; details: 72 hours, CellTiter-Glo, read-out: TPM3-NTRK1-wt IC50
T1 construct: host or cells: Ba/F3 (RIKEN), retroviral pMSCV-puro; the other entry of the earlier key: TPM3 (P06753, Tropomyosin alpha-3 chain)
T1 sequence (P04629 510-796 limits assumed): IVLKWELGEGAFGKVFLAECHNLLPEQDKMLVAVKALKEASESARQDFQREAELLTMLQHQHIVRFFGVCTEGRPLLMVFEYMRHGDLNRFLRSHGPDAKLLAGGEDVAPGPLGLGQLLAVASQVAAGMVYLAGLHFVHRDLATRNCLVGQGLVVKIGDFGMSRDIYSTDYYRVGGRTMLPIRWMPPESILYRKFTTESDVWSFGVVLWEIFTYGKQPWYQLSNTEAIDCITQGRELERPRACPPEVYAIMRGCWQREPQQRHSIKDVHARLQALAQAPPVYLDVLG
In short: (§1)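 Ba/F3 lines stably expressing the fusion (retroviral pMSCV-puro, selected by IL-3 withdrawal plus puromycin 0.8 μg/mL, monoclonal) were seeded at 1,000 cells/well, dosed next day with 3-fold compound dilutions, and incubated 72 hours. CellTiter-Glo luminescence gave percent inhibition; IC50 by four-parameter logistic fit.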

[1] = biological target: T2, Ba/F3 cells EML4-ALK L1196M/G1202R (variant 1) (Homo sapiens, UniProt Q9UM73, G1202R/L1196M); assay: Ba/F3 cell proliferation assay, EML4-ALK L1196M/G1202R (variant 1); format: cell-based; details: 72 hours, CellTiter-Glo
T2 construct: echinoderm microtubule-associated protein-like 4 (EML4) gene and the ALK tyrosine kinase domain; host or cells: Ba/F3 (RIKEN), retroviral pMSCV-puro; the other entry of the earlier key: EML4 (Q9HC35, Echinoderm microtubule-associated protein-like 4)
T2 sequence (Q9UM73 with tags, fused parts or gaps L1196M/G1202R): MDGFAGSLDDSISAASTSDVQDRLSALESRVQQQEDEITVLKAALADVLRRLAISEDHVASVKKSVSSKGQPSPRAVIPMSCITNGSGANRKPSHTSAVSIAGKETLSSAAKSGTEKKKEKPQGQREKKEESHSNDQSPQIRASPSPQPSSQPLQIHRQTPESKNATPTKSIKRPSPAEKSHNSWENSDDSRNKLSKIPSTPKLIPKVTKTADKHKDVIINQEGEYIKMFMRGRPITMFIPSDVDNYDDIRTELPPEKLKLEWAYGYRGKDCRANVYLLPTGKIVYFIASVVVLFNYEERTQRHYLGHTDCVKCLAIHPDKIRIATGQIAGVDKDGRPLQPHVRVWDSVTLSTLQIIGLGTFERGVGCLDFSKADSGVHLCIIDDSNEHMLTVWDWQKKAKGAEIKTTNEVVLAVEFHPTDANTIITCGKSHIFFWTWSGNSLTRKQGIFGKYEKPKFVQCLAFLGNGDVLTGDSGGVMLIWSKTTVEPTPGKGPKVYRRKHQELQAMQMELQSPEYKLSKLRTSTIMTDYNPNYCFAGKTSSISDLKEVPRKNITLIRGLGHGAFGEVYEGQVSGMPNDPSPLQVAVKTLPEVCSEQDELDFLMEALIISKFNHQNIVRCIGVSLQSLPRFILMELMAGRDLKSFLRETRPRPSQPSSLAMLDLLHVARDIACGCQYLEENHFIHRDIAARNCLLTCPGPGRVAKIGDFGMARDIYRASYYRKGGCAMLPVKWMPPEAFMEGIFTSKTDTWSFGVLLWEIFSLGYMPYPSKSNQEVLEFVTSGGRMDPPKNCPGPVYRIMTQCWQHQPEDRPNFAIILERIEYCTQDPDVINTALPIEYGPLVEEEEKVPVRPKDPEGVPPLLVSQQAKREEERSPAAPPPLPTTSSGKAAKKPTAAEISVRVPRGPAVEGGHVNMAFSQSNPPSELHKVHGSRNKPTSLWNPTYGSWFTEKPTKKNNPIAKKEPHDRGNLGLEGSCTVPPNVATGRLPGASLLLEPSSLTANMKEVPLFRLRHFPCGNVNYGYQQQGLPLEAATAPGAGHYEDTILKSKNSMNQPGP
In short: as §1

[2] = system: TPM3-NTRK1-wt IC50 / primary target IC50 (e.g. CD74-ROS1-wt); assay: TRKA selectivity in Ba/F3 cells (TRKA potency divided by primary target potency); format: cell-based; details: for TPM3-NTRK1-wt/CD74-ROS1-G2032R selectivity ratio: TRKA potency / CD74-ROS1-G2032R potency; for TPM3-NTRK1-wt/CD74-ROS1-wt selectivity ratio: TRKA potency / CD74-ROS1-wt potency; for TPM3-NTRK1-wt/EML4-ALK-L1196M-G1202R selectivity ratio: TRKA potency / EML4-ALK-L1196M-G1202R potency; for TPM3-NTRK1-wt/EML4-ALK-wt selectivity ratio: TRKA potency / EML4-ALK-wt potency
Procedure: TRKA selectivity was calculated by dividing a compound's TRKA potency by its primary target potency (e.g. TPM3-NTRK1-wt IC50/CD74-ROS1-wt IC50). Compound selectivity can be interpreted by binning ratio values: bin A for very high selectivity, ratio >30-fold; bin B for high selectivity, ratio >10-fold; bin C for moderate selectivity, ratio ≥1; and bin D for low selectivity, ratio <1. […] (nd=not determined).

ALK L1196M/G1202R = biological target: T3, ALK L1196M/G1202R (Homo sapiens, UniProt Q9UM73, G1202R/L1196M); assay: Biochemical kinase assay, ALK L1196M/G1202R kinase domain; details: apparent inhibitory constant, Morrison equation; ATP 2 mM in substrate solution; read-out: ALK-L1196M-G1202R Ki^app
T3 construct: purchased SignalChem A19-12NG
T3 sequence (Q9UM73 1116-1392 L1196M/G1202R limits assumed): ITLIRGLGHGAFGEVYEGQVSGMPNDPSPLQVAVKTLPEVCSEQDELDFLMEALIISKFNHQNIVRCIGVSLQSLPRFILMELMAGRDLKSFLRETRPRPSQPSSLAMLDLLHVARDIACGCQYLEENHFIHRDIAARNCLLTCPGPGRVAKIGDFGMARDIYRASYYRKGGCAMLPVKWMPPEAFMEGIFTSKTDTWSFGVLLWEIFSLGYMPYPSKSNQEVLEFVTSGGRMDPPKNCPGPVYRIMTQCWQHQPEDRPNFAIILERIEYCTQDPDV
In short: (§2)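 Apparent Ki values come from fitting initial reaction rates against inhibitor concentration to the Morrison equation. Rates were taken from the linear phase of fluorogenic substrate phosphorylation (AQT0101 for ALK and ROS1, AQT0104 for TRKA; 26 μM in substrate solution with 2 mM ATP), monitored at 485 nm over 120 min at 30° C.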

[3] = biological target: T4, Ba/F3 cells CD74-ROS1 wild-type (wt) (Homo sapiens, UniProt P08922); assay: Ba/F3 cell proliferation assay, CD74-ROS1 wild-type; format: cell-based; details: 72 hours, CellTiter-Glo
T4 construct: fusion of the C-terminus of ROS1 with the N-terminus of various partner proteins; host or cells: Ba/F3 (RIKEN), retroviral pMSCV-puro; the other entry of the earlier key: CD74 (P04233, HLA class II histocompatibility antigen gamma chain)
T4 sequence (P08922 1883-2347 limits assumed): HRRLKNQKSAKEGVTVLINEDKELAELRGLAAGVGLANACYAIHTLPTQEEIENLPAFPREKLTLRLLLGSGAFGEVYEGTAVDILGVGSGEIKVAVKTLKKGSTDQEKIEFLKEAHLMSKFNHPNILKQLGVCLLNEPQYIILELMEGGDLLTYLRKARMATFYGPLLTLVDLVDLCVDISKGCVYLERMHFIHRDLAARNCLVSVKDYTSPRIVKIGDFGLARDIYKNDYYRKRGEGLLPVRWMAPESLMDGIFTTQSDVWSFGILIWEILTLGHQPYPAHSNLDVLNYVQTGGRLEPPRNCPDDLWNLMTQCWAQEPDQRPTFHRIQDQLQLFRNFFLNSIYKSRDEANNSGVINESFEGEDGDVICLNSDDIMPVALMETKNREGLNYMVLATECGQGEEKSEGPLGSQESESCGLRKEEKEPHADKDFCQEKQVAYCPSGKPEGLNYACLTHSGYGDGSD
In short: (§3)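 Viability read by CellTiter-Glo luminescence after 72 h exposure to 3-fold serial compound dilutions, four-parameter logistic fitting giving IC50.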

[4] = biological target: T5, Ba/F3 cells EML4-ALK wt (variant 1) (Homo sapiens, UniProt Q9UM73); assay: Ba/F3 cell proliferation assay, EML4-ALK wt (variant 1); format: cell-based; details: 72 hours, CellTiter-Glo
T5 construct: echinoderm microtubule-associated protein-like 4 (EML4) gene and the ALK tyrosine kinase domain; host or cells: Ba/F3 (RIKEN), retroviral pMSCV-puro; the other entry of the earlier key: EML4 (Q9HC35, Echinoderm microtubule-associated protein-like 4)
T5 sequence (Q9UM73 with tags, fused parts or gaps): as the sequence (Q9UM73 with tags, fused parts or gaps L1196M/G1202R) above, with M635L, R641G counted along it
In short: as §1

ALK-wt = biological target: T6, ALK-wt (Homo sapiens, UniProt Q9UM73); assay: Biochemical kinase assay, ALK-wt kinase domain; details: apparent inhibitory constant, Morrison equation; ATP 2 mM in substrate solution; read-out: ALK-wt Ki^app
T6 construct: purchased Carna 08-518
T6 sequence (Q9UM73 1116-1392 limits assumed): as the sequence (Q9UM73 1116-1392 L1196M/G1202R limits assumed) above, with M81L, R87G counted along it
In short: as §2

TRKA-wt = biological target: T7, TRKA-wt (Homo sapiens, UniProt P04629); assay: Biochemical kinase assay, TRKA-wt kinase domain; details: apparent inhibitory constant, Morrison equation; ATP 2 mM in substrate solution; read-out: TRKA-wt Ki^app
T7 construct: or TRKA-wt (1 nM, BPS Bio, 40280) kinase domains in buffer; purchased BPS Bio 40280
T7 sequence (P04629 510-781 limits assumed): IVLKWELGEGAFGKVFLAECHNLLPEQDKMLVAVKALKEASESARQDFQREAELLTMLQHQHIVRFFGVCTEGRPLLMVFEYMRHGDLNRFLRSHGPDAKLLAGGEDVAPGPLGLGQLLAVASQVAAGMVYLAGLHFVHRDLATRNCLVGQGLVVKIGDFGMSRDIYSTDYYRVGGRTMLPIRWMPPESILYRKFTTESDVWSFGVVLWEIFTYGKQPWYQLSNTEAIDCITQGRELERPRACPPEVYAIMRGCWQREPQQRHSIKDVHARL
In short: as §2

[5] = biological target: T8, Ba/F3 cells CD74-ROS1 G2032R (Homo sapiens, UniProt P08922, G2032R); assay: Ba/F3 cell proliferation assay, CD74-ROS1 G2032R; format: cell-based; details: 72 hours, CellTiter-Glo
T8 construct: fusion of the C-terminus of ROS1 with the N-terminus of various partner proteins; host or cells: Ba/F3 (RIKEN), retroviral pMSCV-puro; the other entry of the earlier key: CD74 (P04233, HLA class II histocompatibility antigen gamma chain)
T8 sequence (P08922 1883-2347 G2032R limits assumed): as the sequence (P08922 1883-2347 limits assumed) above, with G150R counted along it
In short: as §3

ROS1-G2032R = biological target: T9, ROS1-G2032R (Homo sapiens, UniProt P08922, G2032R); assay: Biochemical kinase assay, ROS1-G2032R kinase domain; details: apparent inhibitory constant, Morrison equation; ATP 2 mM in substrate solution; read-out: ROS1-G2032R Ki^app
T9 construct: purchased SignalChem R14-12BG
T9 sequence (P08922 1945-2222 G2032R limits assumed): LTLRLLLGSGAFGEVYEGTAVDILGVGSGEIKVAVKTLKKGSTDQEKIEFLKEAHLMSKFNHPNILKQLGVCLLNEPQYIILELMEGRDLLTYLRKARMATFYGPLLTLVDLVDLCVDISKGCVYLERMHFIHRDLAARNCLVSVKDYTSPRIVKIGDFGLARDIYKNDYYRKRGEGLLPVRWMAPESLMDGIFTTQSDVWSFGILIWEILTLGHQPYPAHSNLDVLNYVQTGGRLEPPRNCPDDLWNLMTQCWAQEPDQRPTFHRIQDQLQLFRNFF
In short: (§4)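 Compounds, as 100-fold DMSO stocks, were dispensed first, then substrate mix was added (ATP 2 mM, AQT0101 26 μM, in 50 mM HEPES pH 7.5/10 mM MgCl2). Reactions ran at 30 °C with fluorescence logged every 2 min over 120 min. Apparent inhibition constants came from fitting rates to Morrison's tight-binding equation.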

ROS1-wt = biological target: T10, ROS1-wt (Homo sapiens, UniProt P08922); assay: Biochemical kinase assay, ROS1-wt kinase domain; details: apparent inhibitory constant, Morrison equation; ATP 2 mM in substrate solution; read-out: ROS1-wt Ki^app
T10 construct: purchased Carna 08-163
T10 sequence (P08922 1945-2222 limits assumed): as the sequence (P08922 1945-2222 G2032R limits assumed) above, with R88G counted along it
In short: as §4

| IC50 (Ba/F3 cells TPM3-TRKA) [nM] | IC50 [1] [nM] | Ki (ALK L1196M/G1202R) [nM] | IC50 [3] [nM] | IC50 [4] [nM] | Ki (ALK-wt) [nM] | Ki (TRKA-wt) [nM] | IC50 [5] [nM] | Ki (ROS1-G2032R) [nM] | Ki (ROS1-wt) [nM] | Structure (SMILES) | TPM3-NTRK1-wt/CD74-ROS1-G2032R selectivity ratio [2] | TPM3-NTRK1-wt/CD74-ROS1-wt selectivity ratio [2] | TPM3-NTRK1-wt/EML4-ALK-L1196M-G1202R selectivity ratio [2] | TPM3-NTRK1-wt/EML4-ALK-wt selectivity ratio [2] |
| --- | --- | --- | --- | --- | --- | --- | --- | --- | --- | --- | --- | --- | --- | --- |
| 50 to 500 | 50 to 500 | < 50 | 0.1 to 50 | 0.1 to 50 | < 50 | > 500 | 0.1 to 50 | < 50 | < 50 | CCn1nc(Cl)c2c1-c1cnc(N)c(c1)O[C@H](C)c1cc(F)ccc1-c1nn(C)nc1C2 [Example 28, (19R)-5-chloro-3ethyl-16-fluoro-10,19-dimethyl-20-oxa-3,4,9,10,11,23-hexaazapentacyclo[19.3.1.0^2,^6.0^8,^12.0^13,^18]pentacosa-1(24),2(6),4,8,11,13,15,17,21(25),22-decaen-22-amine] | A (bin A for very high selectivity, ratio >30-fold) | A (bin A for very high selectivity, ratio >30-fold) | C (bin C for moderate selectivity, ratio ≥1) | B (bin B for high selectivity, ratio >10-fold) |
| 50 to 500 | 0.1 to 50 | < 50 | 0.1 to 50 | 0.1 to 50 | < 50 | 50 to 500 | 0.1 to 50 | < 50 | < 50 | CCn1nc(C)c2c1-c1cnc(N)c(c1)O[C@H](C)c1cc(F)ccc1-c1nn(C)nc1C2 [Example 29, (19R)-3-ethyl-16-fluoro-5,10,19-trimethyl-20-oxa-3,4,9,10,11,23-hexaazapentacyclo[19.3.1.0^2,^6.0^8,^12.0^13,^18]pentacosa-1(24),2(6),4,8,11,13,15,17,21(25),22-decaen-22-amine] | A (bin A for very high selectivity, ratio >30-fold) | A (bin A for very high selectivity, ratio >30-fold) | C (bin C for moderate selectivity, ratio ≥1) | A (bin A for very high selectivity, ratio >30-fold) |
| > 500 | 50 to 500 | < 50 | 0.1 to 50 | 0.1 to 50 | < 50 | > 500 | 0.1 to 50 | < 50 | < 50 | C[C@H]1Oc2cc(cnc2N)-c2c(C3CCC3)nnn2Cc2nn(C)nc2-c2ccc(F)cc21 [Example 30, (19R)-3-cyclobutyl-16-fluoro-10,19-dimethyl-20-oxa-4,5,6,9,10,11,23-heptaazapentacyclo[19.3.1.0^2,^6.0^8,^12.0^13,^18]pentacosa-1(24),2,4,8,11,13,15,17,21(25),22-decaen-22-amine] | A (bin A for very high selectivity, ratio >30-fold) | A (bin A for very high selectivity, ratio >30-fold) | C (bin C for moderate selectivity, ratio ≥1) | A (bin A for very high selectivity, ratio >30-fold) |
| 50 to 500 | 50 to 500 | < 50 | 0.1 to 50 | 0.1 to 50 | < 50 | 50 to 500 | 0.1 to 50 | < 50 | < 50 | CCn1ncc2c1-c1cnc(N)c(c1)O[C@H](C)c1cc(F)ccc1-c1nc(C)nn1C2 [Example 33, (19R)-3-ethyl-16-fluoro-10,19-dimethyl-20-oxa-hexaazapentacyclo[19.3.1.0^2,^6.0^8,^12.0^13,^18]pentacosa-1(24),2(6),4,9,11,13,15,17,21(25),22-decaen-22-amine] | A (bin A for very high selectivity, ratio >30-fold) | A (bin A for very high selectivity, ratio >30-fold) | C (bin C for moderate selectivity, ratio ≥1) | A (bin A for very high selectivity, ratio >30-fold) |
| 50 to 500 | 0.1 to 50 | < 50 | 0.1 to 50 | 0.1 to 50 | < 50 | 50 to 500 | 0.1 to 50 | < 50 | < 50 | CCn1ncc2c1-c1cnc(N)c(c1)OC(C)c1cc(F)ccc1-c1cccnc1C2 (centres unmarked) [Example 34, 3-ethyl-17-fluoro-20-methyl-21-oxa-3,4,9,24-tetraazapentacyclo[20.3.1.0^2,^6.0^8,^13.0^14,^19]hexacosa-1(25),2(6),4,8(13),9,11,14,16,18,22(26),23-undecaen-23-amine] | A (bin A for very high selectivity, ratio >30-fold) | A (bin A for very high selectivity, ratio >30-fold) | B (bin B for high selectivity, ratio >10-fold) | A (bin A for very high selectivity, ratio >30-fold) |
| > 500 | 50 to 500 | < 50 | 0.1 to 50 | 0.1 to 50 | < 50 | 50 to 500 | 0.1 to 50 | < 50 | < 50 | CCn1ncc2c1-c1cnc(N)c(c1)O[C@H](C)c1cc(F)ccc1-c1ncnn1C2 [Example 35, (19R)-3-ethyl-16-fluoro-19-methyl-20-oxa-3,4,8,9,11,23-hexaazapentacyclo[19.3.1.0^2,^6.0^8,^12.0^13,^18]pentacosa-1(24),2(6),4,9,11,13,15,17,21(2 5),22-decaen-22-amine] | A (bin A for very high selectivity, ratio >30-fold) | A (bin A for very high selectivity, ratio >30-fold) | C (bin C for moderate selectivity, ratio ≥1) | A (bin A for very high selectivity, ratio >30-fold) |
| > 500 | 50 to 500 | 50 to 500 | 0.1 to 50 | 0.1 to 50 | < 50 | > 500 | 0.1 to 50 | < 50 | < 50 | CCn1ncc2c1-c1cnc(N)c(c1)OC(C)c1cc(F)cnc1-c1ccnn1C2 (centres unmarked) [Example 37, 3-ethyl-16-fluoro-19-methyl-20-oxa-3,4,8,9,14,23-hexaazapentacyclo[19.3.1.0^2,^6.0^8,^12.0^13,^18]pentacosa-1(24),2(6),4,9,11,13,15,17,21(25),22-decaen-22-amine] | A (bin A for very high selectivity, ratio >30-fold) | A (bin A for very high selectivity, ratio >30-fold) | B (bin B for high selectivity, ratio >10-fold) | A (bin A for very high selectivity, ratio >30-fold) |
